Where two headings read alike, the source gives them in different places. Blank lines part the entries; values can stand above or below the compound they belong to.
Legend:
[1] = From the text: Accordingly, when looking at a particular acid, the percent of ionization of that acid can be determined by the following formula: […]
[2] = cited from earlier work
[3] = at 25° C.; cited from earlier work

percent ionized ([1]; in water, pH 2.2): approximately 9%
pH−pKa value ([1]; pH 2.2): −0.77
pH−pKa value ([1]; pH 5): 2.03
percent ionized ([1]; pH raised to 5): approximately 99%
SMILES: O=C(O)c1ccccc1O [Salicylic, salicylic acid]
normal pH in water [2]: 2.2

SMILES: O=C(O)C(O)c1ccccc1 (centres unmarked) [Mandelic, mandelic acid]
pKa [3]: 3.85

SMILES: NC(N)=O [Urea]
pKa [3]: 0.10

SMILES: O=C[C@H](O)[C@@H](O)[C@H](O)[C@H](O)C(=O)O [Glucoronic, glucuronic acid]
pKa [3]: 3.28

Source: patent publication US20110076261A1, “Antifungal Drug Delivery System” (priority 2007, published 2011)
